Experiments:
Experiment in all cases: biochemical
Type in all cases: binding
panel of 442 kinases [1] = molecular target: T1, panel of 442 kinases (Homo sapiens, UniProt Q14680); settings: kinase MELK; for remaining activity at 1 µM: read-out: % of control at 1 µM
T1 construct: purchased Ambit Biosciences (scanMAXX KINOMEscan)

panel of 442 kinases [2] = molecular target: T2, panel of 442 kinases (Homo sapiens, UniProt Q05655); settings: kinase PRKCD; for remaining activity at 1 µM: read-out: PRKCD (% of control at 1 µM)
T2 construct: purchased Ambit Biosciences (scanMAXX KINOMEscan)
T2 sequence (Q05655 whole entry): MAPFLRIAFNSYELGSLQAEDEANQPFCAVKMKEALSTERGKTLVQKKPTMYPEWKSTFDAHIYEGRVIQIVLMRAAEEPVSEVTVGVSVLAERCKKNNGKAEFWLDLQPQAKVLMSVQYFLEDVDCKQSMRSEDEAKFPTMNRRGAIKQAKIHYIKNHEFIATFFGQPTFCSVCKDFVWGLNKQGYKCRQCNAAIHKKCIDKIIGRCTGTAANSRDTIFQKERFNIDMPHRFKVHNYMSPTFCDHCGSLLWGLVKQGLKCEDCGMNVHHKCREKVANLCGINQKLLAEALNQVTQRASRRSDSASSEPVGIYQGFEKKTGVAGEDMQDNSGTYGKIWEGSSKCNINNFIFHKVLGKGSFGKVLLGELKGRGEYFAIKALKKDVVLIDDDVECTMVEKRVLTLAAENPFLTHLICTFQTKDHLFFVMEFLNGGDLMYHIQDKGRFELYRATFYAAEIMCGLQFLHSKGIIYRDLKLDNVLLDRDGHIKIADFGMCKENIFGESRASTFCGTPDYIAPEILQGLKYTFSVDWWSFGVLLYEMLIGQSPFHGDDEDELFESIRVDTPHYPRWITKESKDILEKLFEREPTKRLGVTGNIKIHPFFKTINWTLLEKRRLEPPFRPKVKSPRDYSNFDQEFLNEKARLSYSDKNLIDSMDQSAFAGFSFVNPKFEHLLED

panel of 442 kinases [3] = molecular target: T3, panel of 442 kinases (Homo sapiens, UniProt P24723); settings: kinase PRKCH; for remaining activity at 1 µM: read-out: PRKCH (% of control at 1 µM)
T3 construct: purchased Ambit Biosciences (scanMAXX KINOMEscan)
T3 sequence (P24723 whole entry): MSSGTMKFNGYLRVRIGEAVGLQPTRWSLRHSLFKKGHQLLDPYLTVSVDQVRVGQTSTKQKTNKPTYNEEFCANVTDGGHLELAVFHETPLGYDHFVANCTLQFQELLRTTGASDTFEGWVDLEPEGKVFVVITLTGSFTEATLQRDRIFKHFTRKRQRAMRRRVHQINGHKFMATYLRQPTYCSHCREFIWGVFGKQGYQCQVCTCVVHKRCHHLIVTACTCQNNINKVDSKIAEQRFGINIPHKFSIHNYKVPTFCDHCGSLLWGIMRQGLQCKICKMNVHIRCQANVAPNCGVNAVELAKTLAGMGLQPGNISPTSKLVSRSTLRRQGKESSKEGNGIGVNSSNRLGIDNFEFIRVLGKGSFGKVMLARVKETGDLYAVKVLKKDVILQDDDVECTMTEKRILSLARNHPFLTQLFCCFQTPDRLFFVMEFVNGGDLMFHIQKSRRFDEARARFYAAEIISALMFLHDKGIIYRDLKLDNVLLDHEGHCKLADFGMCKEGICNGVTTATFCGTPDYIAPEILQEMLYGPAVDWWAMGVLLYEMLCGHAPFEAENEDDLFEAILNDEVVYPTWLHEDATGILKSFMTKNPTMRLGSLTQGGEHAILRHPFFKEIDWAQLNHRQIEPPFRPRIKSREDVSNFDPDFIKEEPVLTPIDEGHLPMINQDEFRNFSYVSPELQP

panel of 442 kinases [4] = molecular target: T4, panel of 442 kinases (Homo sapiens, UniProt Q9Y2H1); settings: kinase NDR2; for remaining activity at 1 µM: read-out: % of control at 1 µM
T4 construct: purchased Ambit Biosciences (scanMAXX KINOMEscan)
T4 sequence (Q9Y2H1 whole entry): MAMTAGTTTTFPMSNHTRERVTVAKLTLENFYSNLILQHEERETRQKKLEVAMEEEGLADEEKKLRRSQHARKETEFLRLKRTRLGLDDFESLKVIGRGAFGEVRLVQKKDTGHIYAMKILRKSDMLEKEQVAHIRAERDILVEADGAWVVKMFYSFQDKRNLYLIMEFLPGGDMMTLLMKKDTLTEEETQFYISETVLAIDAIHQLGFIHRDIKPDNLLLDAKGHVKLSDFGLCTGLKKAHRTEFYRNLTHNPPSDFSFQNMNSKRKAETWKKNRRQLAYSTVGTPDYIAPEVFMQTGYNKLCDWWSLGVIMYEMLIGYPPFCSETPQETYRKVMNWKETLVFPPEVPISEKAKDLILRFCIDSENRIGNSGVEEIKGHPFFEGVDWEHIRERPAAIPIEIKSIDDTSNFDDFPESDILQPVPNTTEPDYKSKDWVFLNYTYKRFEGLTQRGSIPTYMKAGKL

panel of 442 kinases [5] = molecular target: T5, panel of 442 kinases (Homo sapiens, UniProt Q9Y6M4); settings: CSNK1G3; for remaining activity at 1 µM: read-out: % of control at 1 µM
T5 construct: purchased Ambit Biosciences (scanMAXX KINOMEscan)

panel of 442 kinases [6] = molecular target: T6, panel of 442 kinases (Homo sapiens, UniProt Q13523); settings: kinase PRP4; for remaining activity at 1 µM: read-out: PRP4 (% of control at 1 µM)
T6 construct: purchased Ambit Biosciences (scanMAXX KINOMEscan)

panel of 442 kinases [7] = molecular target: T7, panel of 442 kinases (Homo sapiens, UniProt P08631); settings: kinase HCK; for remaining activity at 1 µM: read-out: % of control at 1 µM
T7 construct: purchased Ambit Biosciences (scanMAXX KINOMEscan)
T7 sequence (P08631 whole entry): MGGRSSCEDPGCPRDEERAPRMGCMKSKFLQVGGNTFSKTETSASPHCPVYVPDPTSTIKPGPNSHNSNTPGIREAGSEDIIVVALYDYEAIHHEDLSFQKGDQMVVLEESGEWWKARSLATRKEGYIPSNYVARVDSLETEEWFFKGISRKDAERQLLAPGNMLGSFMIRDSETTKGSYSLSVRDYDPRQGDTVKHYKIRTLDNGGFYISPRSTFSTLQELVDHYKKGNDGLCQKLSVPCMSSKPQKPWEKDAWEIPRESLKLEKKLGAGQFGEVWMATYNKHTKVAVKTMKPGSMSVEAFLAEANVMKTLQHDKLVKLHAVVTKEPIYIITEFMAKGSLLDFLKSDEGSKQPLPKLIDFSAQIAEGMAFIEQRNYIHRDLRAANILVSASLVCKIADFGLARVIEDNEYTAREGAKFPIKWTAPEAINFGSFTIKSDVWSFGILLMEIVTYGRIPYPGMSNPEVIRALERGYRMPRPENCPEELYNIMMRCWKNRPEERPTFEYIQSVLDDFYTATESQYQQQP

panel of 442 kinases [8] = molecular target: T8, panel of 442 kinases (Homo sapiens, UniProt O95819); settings: kinase MAP4K4; for remaining activity at 1 µM: read-out: % of control at 1 µM
T8 construct: purchased Ambit Biosciences (scanMAXX KINOMEscan)

panel of 442 kinases [9] = molecular target: T9, panel of 442 kinases (Homo sapiens, UniProt Q86UE8); settings: kinase TLK2; for remaining activity at 1 µM: read-out: TLK2 (% of control at 1 µM)
T9 construct: purchased Ambit Biosciences (scanMAXX KINOMEscan)
T9 sequence (Q86UE8 whole entry): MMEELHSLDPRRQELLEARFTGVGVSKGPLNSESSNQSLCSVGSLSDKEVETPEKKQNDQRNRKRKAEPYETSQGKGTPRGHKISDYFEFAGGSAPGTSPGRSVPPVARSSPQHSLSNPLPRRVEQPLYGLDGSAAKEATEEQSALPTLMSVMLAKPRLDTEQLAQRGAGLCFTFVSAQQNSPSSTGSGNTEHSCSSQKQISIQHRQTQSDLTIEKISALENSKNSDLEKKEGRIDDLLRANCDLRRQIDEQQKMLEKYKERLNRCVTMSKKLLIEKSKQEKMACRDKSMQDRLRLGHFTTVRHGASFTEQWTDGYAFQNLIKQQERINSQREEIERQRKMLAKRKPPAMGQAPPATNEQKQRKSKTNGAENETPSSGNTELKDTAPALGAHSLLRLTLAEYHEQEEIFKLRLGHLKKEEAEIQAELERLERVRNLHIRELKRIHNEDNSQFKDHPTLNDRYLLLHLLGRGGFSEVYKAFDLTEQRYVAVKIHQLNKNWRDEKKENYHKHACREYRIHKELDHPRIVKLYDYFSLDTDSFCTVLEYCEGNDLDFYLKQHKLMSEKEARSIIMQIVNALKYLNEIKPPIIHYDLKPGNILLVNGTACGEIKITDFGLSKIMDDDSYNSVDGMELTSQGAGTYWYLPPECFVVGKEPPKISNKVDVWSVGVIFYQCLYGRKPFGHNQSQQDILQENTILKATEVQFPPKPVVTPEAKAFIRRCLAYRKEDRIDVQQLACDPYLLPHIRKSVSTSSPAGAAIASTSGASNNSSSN

panel of 442 kinases [10] = molecular target: T10, panel of 442 kinases (Homo sapiens, UniProt O96017); settings: CHEK2; for remaining activity at 1 µM: read-out: % of control at 1 µM
T10 construct: purchased Ambit Biosciences (scanMAXX KINOMEscan)

panel of 442 kinases [11] = molecular target: T11, panel of 442 kinases (Homo sapiens, UniProt Q8WU08); settings: kinase YANK1; for remaining activity at 1 µM: read-out: YANK1 (% of control at 1 µM)
T11 construct: purchased Ambit Biosciences (scanMAXX KINOMEscan)
T11 sequence (Q8WU08 whole entry): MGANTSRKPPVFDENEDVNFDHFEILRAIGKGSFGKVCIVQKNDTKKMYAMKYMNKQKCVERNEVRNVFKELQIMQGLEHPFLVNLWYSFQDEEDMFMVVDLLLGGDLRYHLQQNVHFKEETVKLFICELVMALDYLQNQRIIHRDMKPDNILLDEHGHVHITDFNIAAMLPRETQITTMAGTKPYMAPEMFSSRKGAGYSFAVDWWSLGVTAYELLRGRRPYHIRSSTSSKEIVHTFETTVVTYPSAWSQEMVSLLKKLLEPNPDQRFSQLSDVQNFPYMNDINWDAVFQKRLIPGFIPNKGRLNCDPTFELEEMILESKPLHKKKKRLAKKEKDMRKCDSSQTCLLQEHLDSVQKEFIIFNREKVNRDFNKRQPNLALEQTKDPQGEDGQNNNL

panel of 442 kinases [12] = molecular target: T12, panel of 442 kinases (Homo sapiens, UniProt P32298); settings: kinase GRK4; for remaining activity at 1 µM: read-out: % of control at 1 µM
T12 construct: purchased Ambit Biosciences (scanMAXX KINOMEscan)
T12 sequence (P32298 whole entry): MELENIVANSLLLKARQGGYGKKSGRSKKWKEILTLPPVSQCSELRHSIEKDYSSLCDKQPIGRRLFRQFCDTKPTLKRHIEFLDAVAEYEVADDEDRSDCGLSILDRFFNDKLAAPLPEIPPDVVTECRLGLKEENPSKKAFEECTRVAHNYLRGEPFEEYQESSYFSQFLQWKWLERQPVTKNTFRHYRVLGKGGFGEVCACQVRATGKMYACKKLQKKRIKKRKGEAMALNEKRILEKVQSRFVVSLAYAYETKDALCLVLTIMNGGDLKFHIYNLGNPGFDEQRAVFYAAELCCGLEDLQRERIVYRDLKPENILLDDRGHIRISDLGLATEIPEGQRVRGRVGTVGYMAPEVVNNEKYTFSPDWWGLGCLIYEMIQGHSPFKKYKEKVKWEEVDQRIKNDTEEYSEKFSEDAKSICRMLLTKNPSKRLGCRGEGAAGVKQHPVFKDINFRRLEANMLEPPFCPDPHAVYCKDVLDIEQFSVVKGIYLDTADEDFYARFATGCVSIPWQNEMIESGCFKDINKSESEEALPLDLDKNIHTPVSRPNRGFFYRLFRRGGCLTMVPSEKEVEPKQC

panel of 442 kinases [13] = molecular target: T13, panel of 442 kinases (Homo sapiens, UniProt Q15759); settings: kinase p38-beta; for remaining activity at 1 µM: read-out: % of control at 1 µM
T13 construct: purchased Ambit Biosciences (scanMAXX KINOMEscan)

panel of 442 kinases [14] = molecular target: T14, panel of 442 kinases (Homo sapiens, UniProt Q9BZL6); settings: kinase PRKD2; for remaining activity at 1 µM: read-out: PRKD2 (% of control at 1 µM)
T14 construct: purchased Ambit Biosciences (scanMAXX KINOMEscan)
T14 sequence (Q9BZL6 1-878): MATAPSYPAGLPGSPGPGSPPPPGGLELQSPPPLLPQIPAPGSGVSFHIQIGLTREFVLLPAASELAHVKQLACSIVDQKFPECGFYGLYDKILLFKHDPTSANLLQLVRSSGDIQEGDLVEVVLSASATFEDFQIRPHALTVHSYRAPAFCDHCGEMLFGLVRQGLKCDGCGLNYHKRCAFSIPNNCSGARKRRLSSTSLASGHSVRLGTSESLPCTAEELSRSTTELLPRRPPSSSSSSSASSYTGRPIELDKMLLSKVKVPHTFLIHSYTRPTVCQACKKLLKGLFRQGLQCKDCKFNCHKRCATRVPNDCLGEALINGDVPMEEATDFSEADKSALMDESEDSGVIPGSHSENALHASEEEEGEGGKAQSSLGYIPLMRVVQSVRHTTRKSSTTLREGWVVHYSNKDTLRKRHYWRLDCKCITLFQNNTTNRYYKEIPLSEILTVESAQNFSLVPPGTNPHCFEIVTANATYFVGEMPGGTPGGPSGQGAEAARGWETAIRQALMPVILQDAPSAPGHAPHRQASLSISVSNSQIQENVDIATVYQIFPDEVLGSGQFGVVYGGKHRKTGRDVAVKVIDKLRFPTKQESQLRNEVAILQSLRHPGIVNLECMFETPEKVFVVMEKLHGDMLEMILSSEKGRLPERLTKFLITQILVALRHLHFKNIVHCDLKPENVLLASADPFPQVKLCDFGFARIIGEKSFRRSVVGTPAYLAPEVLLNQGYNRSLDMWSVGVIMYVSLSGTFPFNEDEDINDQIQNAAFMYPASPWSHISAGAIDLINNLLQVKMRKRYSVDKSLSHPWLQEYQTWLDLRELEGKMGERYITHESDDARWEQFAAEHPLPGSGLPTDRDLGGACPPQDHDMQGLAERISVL

panel of 442 kinases [15] = molecular target: T15, panel of 442 kinases (Homo sapiens, UniProt P45985); settings: kinase MEK4; for remaining activity at 1 µM: read-out: % of control at 1 µM
T15 construct: purchased Ambit Biosciences (scanMAXX KINOMEscan)
T15 sequence (P45985 1-399): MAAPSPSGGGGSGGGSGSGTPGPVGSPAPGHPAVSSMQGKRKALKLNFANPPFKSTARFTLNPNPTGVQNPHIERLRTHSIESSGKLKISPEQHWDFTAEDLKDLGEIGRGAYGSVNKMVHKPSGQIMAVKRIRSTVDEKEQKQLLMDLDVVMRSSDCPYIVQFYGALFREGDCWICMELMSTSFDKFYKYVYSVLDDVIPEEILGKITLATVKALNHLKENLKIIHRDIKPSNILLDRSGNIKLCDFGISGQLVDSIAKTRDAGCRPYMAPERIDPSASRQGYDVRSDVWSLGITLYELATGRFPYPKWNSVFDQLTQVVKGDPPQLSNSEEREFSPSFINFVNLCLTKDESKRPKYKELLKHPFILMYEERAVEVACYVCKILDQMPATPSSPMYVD

panel of 442 kinases [16] = molecular target: T16, panel of 442 kinases (Homo sapiens, UniProt P41240); settings: CSK; for remaining activity at 1 µM: read-out: % of control at 1 µM
T16 construct: purchased Ambit Biosciences (scanMAXX KINOMEscan)

panel of 442 kinases [17] = molecular target: T17, panel of 442 kinases (Homo sapiens, UniProt Q92918); settings: kinase HPK1; for remaining activity at 1 µM: read-out: % of control at 1 µM
T17 construct: purchased Ambit Biosciences (scanMAXX KINOMEscan)

panel of 442 kinases [18] = molecular target: T18, panel of 442 kinases (Homo sapiens, UniProt P31751); settings: AKT2; for remaining activity at 1 µM: read-out: % of control at 1 µM
T18 construct: purchased Ambit Biosciences (scanMAXX KINOMEscan)

[19] = 10 µM, read-out: % of control at 10 µM

T1 sequence (Q14680 whole entry): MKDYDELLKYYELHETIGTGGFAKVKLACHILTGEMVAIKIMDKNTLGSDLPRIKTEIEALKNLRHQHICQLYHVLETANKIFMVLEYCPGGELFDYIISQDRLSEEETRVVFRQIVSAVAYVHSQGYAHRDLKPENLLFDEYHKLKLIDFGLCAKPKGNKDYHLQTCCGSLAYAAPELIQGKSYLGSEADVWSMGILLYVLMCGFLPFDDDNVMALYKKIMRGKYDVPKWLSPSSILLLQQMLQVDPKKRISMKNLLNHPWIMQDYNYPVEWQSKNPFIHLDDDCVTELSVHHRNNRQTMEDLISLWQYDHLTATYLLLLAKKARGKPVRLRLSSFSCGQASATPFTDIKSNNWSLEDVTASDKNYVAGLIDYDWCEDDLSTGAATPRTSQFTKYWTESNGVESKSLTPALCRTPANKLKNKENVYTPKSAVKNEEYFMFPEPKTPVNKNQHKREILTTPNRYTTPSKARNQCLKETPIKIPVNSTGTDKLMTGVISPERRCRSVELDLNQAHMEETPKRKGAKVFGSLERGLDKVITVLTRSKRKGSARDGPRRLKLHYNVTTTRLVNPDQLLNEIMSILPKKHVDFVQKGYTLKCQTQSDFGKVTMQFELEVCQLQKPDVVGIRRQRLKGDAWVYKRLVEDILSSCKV

| SMILES | remaining activity at 1 µM (panel of 442 kinases [1]) [%] | remaining activity at 1 µM (panel of 442 kinases [2]) [%] | remaining activity at 1 µM (panel of 442 kinases [3]) [%] | remaining activity at 1 µM (panel of 442 kinases [4]) [%] | remaining activity at 1 µM (panel of 442 kinases [5]) [%] | remaining activity at 1 µM (panel of 442 kinases [6]) [%] | remaining activity at 1 µM (panel of 442 kinases [7]) [%] | remaining activity at 1 µM (panel of 442 kinases [8]) [%] | remaining activity at 1 µM (panel of 442 kinases [9]) [%] | remaining activity at 1 µM (panel of 442 kinases [10]) [%] | remaining activity at 1 µM (panel of 442 kinases [11]) [%] | remaining activity at 1 µM (panel of 442 kinases [12]) [%] | remaining activity at 1 µM (panel of 442 kinases [13]) [%] | remaining activity at 1 µM (panel of 442 kinases [14]) [%] | remaining activity at 1 µM (panel of 442 kinases [15]) [%] | remaining activity at 1 µM (panel of 442 kinases [16]) [%] | remaining activity at 1 µM (panel of 442 kinases [17]) [%] | remaining activity at 1 µM (panel of 442 kinases [18]) [%] | other results |
| --- | --- | --- | --- | --- | --- | --- | --- | --- | --- | --- | --- | --- | --- | --- | --- | --- | --- | --- | --- |
| Nc1cc(C(F)(F)F)c(-c2cc(N3CCOCC3)nc(N3CCOCC3)n2)cn1 [Buparlisib] | 90 | 100 | 99 | 90 | 100 | 100 | 100 | 100 | 100 | 93 | 100 | 100 | 99 | 100 | 100 | 94 | 92 | 100 | remaining activity at 10 µM (panel of 442 kinases [1]; [19]): 91%; remaining activity at 10 µM (panel of 442 kinases [2]; 10 µM, read-out: PRKCD (% of control at 10 µM)): 100%; remaining activity at 10 µM (panel of 442 kinases [3]; 10 µM, read-out: PRKCH (% of control at 10 µM)): 100%; remaining activity at 10 µM (panel of 442 kinases [4]; [19]): 100%; remaining activity at 10 µM (panel of 442 kinases [5]; [19]): 100%; remaining activity at 10 µM (panel of 442 kinases [6]; 10 µM, read-out: PRP4 (% of control at 10 µM)): 93%; remaining activity at 10 µM (panel of 442 kinases [7]; [19]): 100%; remaining activity at 10 µM (panel of 442 kinases [8]; [19]): 100%; remaining activity at 10 µM (panel of 442 kinases [9]; 10 µM, read-out: TLK2 (% of control at 10 µM)): 100%; remaining activity at 10 µM (panel of 442 kinases [10]; [19]): 100%; remaining activity at 10 µM (panel of 442 kinases [11]; 10 µM, read-out: YANK1 (% of control at 10 µM)): 100%; remaining activity at 10 µM (panel of 442 kinases [12]; [19]): 100%; remaining activity at 10 µM (panel of 442 kinases [13]; [19]): 91%; remaining activity at 10 µM (panel of 442 kinases [14]; 10 µM, read-out: PRKD2 (% of control at 10 µM)): 100%; remaining activity at 10 µM (panel of 442 kinases [15]; [19]): 100%; remaining activity at 10 µM (panel of 442 kinases [16]; [19]): 100%; remaining activity at 10 µM (panel of 442 kinases [17]; [19]): 100%; remaining activity at 10 µM (panel of 442 kinases [18]; [19]): 100% |
| Cn1c(=O)n(-c2ccc(C(C)(C)C#N)cc2)c2c3cc(-c4cnc5ccccc5c4)ccc3ncc21 [Dactolisib, 2-methyl-2-[4-(3-methyl-2-oxo-8-quinolin-3-yl-2,3-dihydroimidazo[4,5-c]quinolin-1-yl)-phenyl] propionitrile] | 45 | 86 | 78 | 100 | 72 | 100 | 94 | 73 | 93 | – | 100 | 97 | 99 | 93 | 83 | 81 | 64 | 78 | – |
| COc1ncc(-c2ccc3nccc(-c4ccnnc4)c3c2)cc1NS(=O)(=O)c1ccc(F)cc1F [Omipalisib] | 100 | 74 | 100 | 100 | 100 | 95 | 100 | 100 | 100 | 100 | 100 | 100 | 100 | 100 | 48 | 98 | 100 | 69 | – |
| FC(F)c1nc2ccccc2n1-c1nc(N2CCOCC2)nc(N2CCOCC2)n1 [ZSTK474, 2-(difluoromethyl)-1-[4,6-di(4-morpholinyl)-1,3,5-triazin-2-yl]-1H-benzimidazole] | 100 | 100 | 98 | 100 | 100 | 100 | 100 | 93 | 100 | 92 | 100 | 100 | 70 | 93 | 63 | 89 | 93 | 80 | – |

Source: article PMC5564600 (Oncotarget, 2017)
